The values that follow come from patent EP1140110B1, “CLATHRATES OF DEHYDROEPIANDROSTERONE AND CORRESPONDING PHARMACEUTICAL COMPOSITIONS” (Euphar Group S.R.L., priority 1998, dated 2000).

Data set [1] can be described thus: Kinetics and metabolism of exogenous DHEA (100 mg single oral dose, young and elderly male subjects). Format: in vivo. The conditions noted are these: 100 mg DHEA single oral dose. The protocol:
This first part of the experimentation was carried out with the purpose of verifying the kinetics and processes of sulfoconjugation and bioconversion of DHEA as such administered to male subjects. The said subjects were divided into two groups according to age: one group of 7 young subjects aged between 24 and 32, and one group of 10 elderly subjects, aged between 67 and 86. Each one of these subjects was administered 100 mg of DHEA in a single dose by oral route. At 0.5, 1, 2, 3, 4, 6, 9,12 and 24 hours from administration, the blood levels of DHEA, DHEA sulphate, total testosterone and 17-β-estradiol were determined. The evaluations were carried out using the parameter of the maximum delta (maximum peak reached, from which the basal values were subtracted) and the parameter of the area under the curve (triangulation system).

For data set [2] the following is noted: general statement in prior art section; cited from earlier work.

Regarding `C[C@]12CC[C@H](O)CC1=CC[C@@H]1[C@@H]2CC[C@]2(C)C(=O)CC[C@@H]12` [DHEA, dehydroepiandrosterone], in data set [1], the “DHEA blood level response to administration, elderly versus young subjects” value is “significantly greater in the elderly subjects”; the “DHEA sulphate blood level response to administration, elderly versus young subjects” value is “significantly greater in the elderly subjects”; the “molar ratio between DHEA sulphate and DHEA in the response-to-administration curves, young versus elderly” value is reported as “did not show any significant differences”. In data set [1] (both groups (young and elderly)), the “time of DHEA sulphate blood level peak from administration” value is listed as “approximately two”. For the same molecule, the “blood levels of 17-β-estradiol versus placebo” value in data set [1] (compared with the testosterone finding (evident only in elderly subjects)) is “the same phenomenon occurred”. In addition, the “difference in profile of the testosterone levels versus placebo” value in data set [1] (elderly subjects, two-way ANOVA) is recorded as “statistically evident”. The “profile of the testosterone levels versus placebo” value in data set [1] (young subjects) was “did not undergo any substantial differences”. Moreover, in data set [2], the solubility in water result was “practically insoluble in water”.
